Consider three compounds from article PMC7248712 (2020).

Each structure is given as a SMILES string.

One test deals with poly C (RNA, polymer) C. As to the kind of experiment: fluorimetric titration. The settings on record: Na+ (sodium cacodylate, I = 0.05 M), pH 7.0, 1 µM compound.
Test [1] concerns poly U (RNA, polymer) U. As to the kind of experiment: fluorimetric titration, Scatchard (McGhee-von Hippel) fit. Particulars: Na+ (sodium cacodylate, I = 0.05 M), pH 7.0, 1 µM compound, n fixed 0.5 per polynucleotide base.
Test [2] concerns poly A (RNA, polymer) A. The description is as above. Particulars: Na+ (sodium cacodylate, I = 0.05 M), pH 7.0, 1 µM compound, n fixed 0.5 per polynucleotide base.
Test [3] relates to poly (dAdT)2 (DNA, polymer) AT. The test is described as above. Particulars: Na+ (sodium cacodylate, I = 0.05 M), pH 7.0, room temperature, 1 µM compound, n fixed 0.2 per polynucleotide base.
In test [4] the test system is poly A-poly U (RNA, polymer) A/U. The description is as above. The settings on record: Na+ (sodium cacodylate, I = 0.05 M), pH 7.0, room temperature, 1 µM compound, n fixed 0.2 per polynucleotide base.
Test [5] relates to poly U (RNA, polymer) U. As to the kind of experiment: fluorimetric titration. The settings on record: Na+ (sodium cacodylate, I = 0.05 M); pH 7.0, 1 µM compound; up to 100-fold excess of polynucleotide bases.
For the next test, the system named is poly G (RNA, polymer) G. As to the kind of experiment: fluorimetric titration. Particulars: Na+ (sodium cacodylate, I = 0.05 M); pH 7.0, 1 µM compound; up to 100-fold excess of polynucleotide bases.
The subject of test [6] is poly A-poly U (RNA, polymer) A/U. As to the kind of experiment: fluorimetric titration. Particulars: Na+ (sodium cacodylate, I = 0.05 M); pH 7.0, 1 µM compound; up to 100-fold excess of polynucleotide bases.
The test system of test [7] is poly A (RNA, polymer) A. As to the kind of experiment: fluorimetric titration. Particulars: Na+ (sodium cacodylate, I = 0.05 M); pH 7.0, 1 µM compound; up to 100-fold excess of polynucleotide bases.
Test [8] has as its system poly (dAdT)2 (DNA, polymer) AT. Put plainly: fluorimetric titration. The settings on record: Na+ (sodium cacodylate, I = 0.05 M); pH 7.0, 1 µM compound; up to 100-fold excess of polynucleotide bases.

For the compound `COC(=O)[C@H](CCCCNC(=O)CCCc1ccc2ccc3cccc4ccc1c2c34)n1cc(Cn2cc3c4c(ncnc42)Nc2ncccc2-3)nn1`, the binding result with poly C (RNA, polymer) C (emission change too small to fit, authors state binding not supported) is recorded as “no”. Besides, the “log Ks” value is recorded as 4.7 in the test with poly U (RNA, polymer) U [1]; 5.2 in the test with poly A (RNA, polymer) A [2]; 5.7 in test [3].
For `COC(=O)[C@H](CCCCNC(=O)c1ccc2ccc3cccc4ccc1c2c34)n1cc(Cn2cc3c4c(ncnc42)Nc2ncccc2-3)nn1`, the “log Ks” value in test [3] was determined as 5.0; in test [4], 5.5.
Consider `NCCCC[C@@H](C(=O)O)n1cc(Cn2cc3c4c(ncnc42)Nc2ncccc2-3)nn1`, for which the binding result with poly C (RNA, polymer) C (up to 100-fold excess of polynucleotide bases) is listed as “no”; with poly U (RNA, polymer) U [5] it was “no”; with poly G (RNA, polymer) G it was “no”; in [6] it was “no”; with poly A (RNA, polymer) A [7], “no”; in test [8] it was “no”.
